Data set [1] in a line: Pharmacokinetics test, oral capsules, plasma concentration by LC-MS/MS. The following applies: male Beagle dogs, oral capsule, 5 mg/kg. It counts as in vivo. The procedure: The test samples (that is, the salt of the present invention or its crystal form, or the compound represented by formula (I) of the present invention) were filled into capsules for oral administration.
Three […] male Beagle dogs were taken orally administered capsules containing the test sample at a dose of 5 mg/kg, and blood was collected at time points of 0.25, 0.5, 1.0, 2.0, 5.0, 7.0 and 24 h. Standard curve was plotted based on concentrations of the samples in a suitable range, the concentration of the test sample in the plasma sample was measured and quantified by AB SCIEX API5500 LC-MS/MS at MRM mode. Pharmacokinetic parameters were calculated according to drug concentration-time curve using a noncompartmental method by WinNonLin 6.3 software.

The nature of data set [2]: Solubility test in water by HPLC. It counts as physicochemical. The following applies: for Concentration of compound represented by formula (I) in saturated aqueous solution: ultrapure water, 37 °C, shaking for 24 h, filtrate by HPLC. The procedure: The solubility of the present invention was determined using an Agilent 1200 High Performance Liquid Chromatograph DAD/VWD detector with an Agilent XDB-C18 model (4.6×50 mm, 5 μm). Detection wavelength was 266 nm, flow rate was 1.0 mL/min, the column temperature was 35° C., mobile phase A: acetonitrile/0.01 M ammonium acetate=[…] (V/V), analysis methods: acetonitrile/mobile phase A=70/30 (V/V), running time was 10 minutes.
The test samples were placed in organic ultrapure water at 37 O(C to prepare a supersaturated solution. After shaking for 24 h, the mixture was filtered with an aqueous filter membrane to obtain the filtrate, and the solubility of the target sample in water was detected by HPLC. Results are as shown in Table 5.

Data set [3] can be described thus: Stability test (high temperature, high humidity, light). The conditions noted are these: for Outward (appearance): cell wraps r9-r11: Off-white solid. The data set is classed as physicochemical. The procedure:
• (1) High temperature test: a batch of the test samples were taken into the flat weighing bottles, spread into a thin layer with a thickness of ≤5 mm. The above weighing bottles were stored at 40° C.±2° C./75%±5% RH and 60° C.±2° C./75% f 5% RH for 30 days in an incubator. On the 5th, 10th, and 30th days, samples were taken for detection according to the key stability inspection items: the color change of the sample was observed, the purity of the sample was determined by HPLC. • (2) High humidity test: a batch of the test samples were taken into the flat weighing bottles, spread into a thin layer with a thickness of ≤5 mm, and stored for 30 days at 25° C., RH 75%±5% or RH 90%±5%. On the 5th, 10th, and 30th days, samples were taken for detection according to the key stability inspection items: the color change of the sample was observed, the purity of the sample was determined by HPLC. • (3) Light test: a batch of the test samples were taken into the flat weighing bottles, spread into a thin layer of ≤5 mm thick, and placed in a light box (with an ultraviolet lamp) with an open mouth. The test samples were stored under the condition of illuminance of 4500±500 lx and ultraviolet light ≥0.7 w·h/m^2 for 30 days. On the 5th, 10th, and 30th days, samples were taken for detection according to the key stability inspection items: the color change of the sample was observed, the purity of the sample was determined by HPLC.

The nature of data set [4]: Hygroscopicity test (weight gain, 25° C., saturated ammonium chloride desiccator, 24 hours). It counts as physicochemical. The procedure:
• 1) A dry stoppered glass weighing bottle (50 mm in outer diameter, 15 mm in height) was placed in a constant temperature desiccator (the lower part was placed in a saturated ammonium chloride solution) at 25° C.±1° C. the day before, and accurately weighed (m1). • 2) An appropriate amount of the test sample was taken and spread in the above weighing bottle. The thickness of the test sample was generally about 1 mm, and it was precisely weighed (m2). • 3) The weighing bottle was opened and placed together with the bottle cap under the above constant temperature and humidity conditions for 24 hours. • 4) The weighing bottle was closed with the bottle cap, and accurately weighed (m3).

Another data set has as its target T1, MAO-B (Homo sapiens, UniProt P27338).
T1 sequence (P27338 1-520): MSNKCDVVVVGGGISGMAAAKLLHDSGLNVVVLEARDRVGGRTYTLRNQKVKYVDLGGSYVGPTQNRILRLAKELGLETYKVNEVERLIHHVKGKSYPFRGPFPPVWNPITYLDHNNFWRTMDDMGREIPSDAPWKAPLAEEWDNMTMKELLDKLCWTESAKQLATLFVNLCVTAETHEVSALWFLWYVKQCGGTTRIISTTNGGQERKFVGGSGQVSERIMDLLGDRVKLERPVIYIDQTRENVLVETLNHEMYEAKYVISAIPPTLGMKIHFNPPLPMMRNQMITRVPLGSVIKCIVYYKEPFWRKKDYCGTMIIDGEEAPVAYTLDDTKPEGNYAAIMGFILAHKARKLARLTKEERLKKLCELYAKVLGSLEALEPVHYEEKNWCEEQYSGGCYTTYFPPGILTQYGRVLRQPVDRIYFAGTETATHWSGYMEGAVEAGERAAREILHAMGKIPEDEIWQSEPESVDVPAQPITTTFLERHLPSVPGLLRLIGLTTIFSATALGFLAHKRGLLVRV
The following applies: as disclosed in WO 2019170115 A1; cited from earlier work.

The mark [5] stands for this setting: High humidity (25° C., RH 75% ± 5%), 5 days.
The mark [6] stands for this setting: High humidity (25° C., RH 75% ± 5%), 10 days.
The mark [7] stands for this setting: High humidity (25° C., RH 75% ± 5%), 30 days.
The mark [8] stands for this setting: High humidity (25° C., RH 90% ± 5%), 5 days.
Where [9] appears, read: High humidity (25° C., RH 90% ± 5%), 10 days.
The mark [10] stands for this setting: High humidity (25° C., RH 90% ± 5%), 30 days.
The mark [11] stands for this setting: High temperature (40° C., RH 75% ± 5%), 5 days.
Where [12] appears, read: High temperature (40° C., RH 75% ± 5%), 10 days.
Setting [13] is: High temperature (40° C., RH 75% ± 5%), 30 days.
The mark [14] stands for this setting: High temperature (60° C., RH 75% ± 5%), 5 days.
Where [15] appears, read: High temperature (60° C., RH 75% ± 5%), 10 days.
[16] abbreviates: High temperature (60° C., RH 75% ± 5%), 30 days.
Where [17] appears, read: Light (4500±500 lx, ultraviolet), 5 days.
Where [18] appears, read: Light (4500±500 lx, ultraviolet), 10 days.
Where [19] appears, read: Light (4500±500 lx, ultraviolet), 30 days.
The mark [20] stands for this setting: 25° C.±1° C., saturated ammonium chloride solution, 24 hours.

The values that follow come from patent US12630507B2, “Pyrrolidine amide derivative salt and use thereof” (SUNSHINE LAKE PHARMA CO., LTD., priority 2020, dated 2026).

Each structure is given as a SMILES string.

What is called Cmax is the maximum level reached in the sampled fluid or tissue. By Tmax is commonly meant the time at which the peak concentration occurs.

On to `NC(=O)[C@@H]1C[C@H](F)CN1Cc1ccc(OCc2cccc(F)c2)cc1` [Example 8, (2S,4S)-4-fluoro-1-(4-(3-fluorobenzyloxy)benzyl)pyrrolidine-2-carboxamide], for which, in data set [1], the AUClast is 378 ng·h/mL, the Cmax was found to be 143 ng/mL and the Tmax is listed as 0.7 h. Also, the “Concentration of compound represented by formula (I) in saturated aqueous solution” value (“Concentration of compound represented” below) in data set [2] was 4719.01 µg/mL.
`NC(=O)[C@@H]1C[C@H](F)CN1Cc1ccc(OCc2cccc(F)c2)cc1` [Example 2, (2S,4S)-4-fluoro-1-(4-(3-fluorobenzyloxy)benzyl)pyrrolidine-2-carboxamide]: the AUClast in data set [1] amounted to 939 ng·h/mL. The compound also registered a Cmax in data set [1] of 415 ng/mL. In addition, in data set [1], the Tmax worked out at 1 h. The Purity in data set [3] (0 day) is reported as 99.74%; in data set [3] (setting [5]), 99.80%; in data set [3] (setting [6]) it was 99.69%; in data set [3] (setting [7]), 99.72%; in data set [3] (setting [8]), 99.80%; in data set [3] (setting [9]) it was 99.69%. Moreover, the Purity is recorded as 99.73% in data set [3] (setting [10]); 99.74% in data set [3] (setting [11]); 99.70% in data set [3] (setting [12]); 99.68% in data set [3] (setting [13]); 99.72% in data set [3] (setting [14]); 99.64% in data set [3] (setting [15]). For the same compound, the Purity was 99.68% in data set [3] (setting [16]), 99.70% in data set [3] (setting [17]), 99.64% in data set [3] (setting [18]) and 99.64% in data set [3] (setting [19]). In addition, the “Outward (appearance)” value in data set [3] (0 day), in data set [3] (setting [5]), in data set [3] (setting [6]), in data set [3] (setting [7]), in data set [3] (setting [8]) and in data set [3] (setting [9]) was “Off-” in each case. The “Outward (appearance)” value in data set [3] (setting [10]), in data set [3] (setting [11]), in data set [3] (setting [12]), in data set [3] (setting [13]), in data set [3] (setting [14]) and in data set [3] (setting [15]) was “Off-” in each case. In addition, the “Outward (appearance)” value in data set [3] (setting [16]), in data set [3] (setting [17]), in data set [3] (setting [18]) and in data set [3] (setting [19]) was “Off-” each time. Further, in data set [3] (conditions of high temperature, high humidity and light, up to 30 days), the “Change of appearance and purity” value is reported as “no obvious change”. For the same compound, the “Hygroscopicity” value in data set [4] is listed as “no or almost no hygroscopicity”. Moreover, in data set [4] (setting [20]), the “Conclusion (hygroscopicity feature)” value is “No or almost none”. Besides, in data set [4] (setting [20]), the Hygroscopicity gain turned out to be 0.12%. The “Concentration of compound represented” value in data set [2] came to 21161.79 µg/mL.
For `NC(=O)[C@@H]1C[C@H](F)CN1Cc1ccc(OCc2cccc(F)c2)cc1` [Example 10, (2S,4S)-4-fluoro-1-(4-(3-fluorobenzyloxy)benzyl)pyrrolidine-2-carboxamide], in data set [1], the AUClast is 470 ng·h/mL, the Cmax was 162 ng/mL and the Tmax turned out to be 2.2 h. Besides, the “Concentration of compound represented” value in data set [2] came to 1571.18 µg/mL.
The corresponding values for `NC(=O)[C@@H]1C[C@H](F)CN1Cc1ccc(OCc2cccc(F)c2)cc1` [Example 9, (2S,4S)-4-fluoro-1-(4-(3-fluorobenzyloxy)benzyl)pyrrolidine-2-carboxamide] are 450 ng·h/mL, 151 ng/mL, 3.4 h and 575.35 µg/mL.
As to `NC(=O)[C@@H]1C[C@H](F)CN1Cc1ccc(OCc2cccc(F)c2)cc1` [Compound represented by formula (I), (2S,4S)-4-fluoro-1-(4-(3-fluorobenzyloxy)benzyl)pyrrolidine-2-carboxamide], in data set [1], the AUClast amounted to 548 ng·h/mL, the Cmax was 256 ng/mL and the Tmax is 0.8 h. For the same compound, in data set [2], the “Water solubility (in words)” value was “poor water solubility” and the “Concentration of compound represented” value is 11.40 µg/mL. For the same compound, the “Inhibitory effect on the activity of MAO-B” value on MAO-B was “good inhibitory effect”.
